Source: ChEMBL document CHEMBL1143423, “In vivo efficacy of moxifloxacin compared with cloxacillin and vancomycin in a Staphylococcus aureus rabbit arthritis experimental model” (Antimicrob Agents Chemother, 2007)
Converted amounts (≈) assume the structure as drawn.

Assays:
[1] = Drug level in serum of Staphylococcus aureus infected rabbit arthritis model at 50 mg/kg, im administered thrice a day; format: ADME, organism-based, Oryctolagus cuniculus; set-up: dose 50 mg/kg, route intramuscular; conditions: in vivo
Staphylococcus aureus [2] = test: Antibacterial activity against methicillin-sensitive Staphylococcus aureus infected rabbit arthritis model assessed as change in bacterial load per gram of synovial fluid at 50 mg/kg, im administered thrice a day after 7 days by broth microdilution technique; format: functional; conditions: route intramuscular
Staphylococcus aureus [3] = test: microbe, parasite or virus in culture
Description: Antibacterial activity against methicillin-resistant Staphylococcus aureus by broth microdilution technique

Staphylococcus aureus [4] = test: Antibacterial activity against methicillin-sensitive Staphylococcus aureus by broth microdilution technique; format: functional
[5] = Cmax in human serum at 400 mg, po administered as single dose after 1 hr; format: ADME, organism-based; set-up: dose 400 mg, route oral
Staphylococcus aureus [6] = test: Antibacterial activity against ciprofloxacin and methicillin-resistant Staphylococcus aureus
[7] = AUC (0 to 24 hrs) in human serum at 400 mg, po administered as single dose; format: ADME, organism-based; set-up: time < 24 hr, dose 400 mg, route oral
[8] = AUC (0 to 24 hrs) in Staphylococcus aureus infected rabbit arthritis model at 45 mg/kg, po; format: ADME, organism-based, Oryctolagus cuniculus; set-up: time < 24 hr, dose 45 mg/kg, route oral; conditions: in vivo
[9] = Cmax in human serum at 400 mg, po administered as single dose; format: ADME, organism-based; conditions: read-out: tCmax
[10] = Cmax in Staphylococcus aureus infected rabbit arthritis model at 45 mg/kg, po; format: ADME, organism-based, Oryctolagus cuniculus; set-up: dose 45 mg/kg, route oral; conditions: in vivo
[11] = Drug level in serum of Staphylococcus aureus infected rabbit arthritis model at 100 mg/kg, iv administered daily; format: ADME, organism-based, Oryctolagus cuniculus; set-up: dose 100 mg/kg, route intravenous; conditions: in vivo

SMILES	Drug uptake [1]	deltalog10CFU (Staphylococcus aureus [2])	MIC (Staphylococcus aureus [3])	MIC (Staphylococcus aureus [4])	Cmax [5]	MIC (Staphylococcus aureus [6])	AUC(0-t) at 24 h [7]	AUC(0-t) at 24 h [8]	Tmax [9]	Cmax [10]	Drug uptake [11]
Cc1onc(-c2ccccc2Cl)c1C(=O)N[C@@H]1C(=O)N2[C@@H]1SC(C)(C)[C@@H]2C(=O)O [CLOXACILLIN]	0.8 mg/L	4.6	4 µg/mL (≈ 9.18 µM)	0.5 µg/mL (≈ 1.15 µM)	–	–	–	–	–	–	–
COc1c(N2C[C@@H]3CCCN[C@@H]3C2)c(F)cc2c(=O)c(C(=O)O)cn(C3CC3)c12 [MOXIFLOXACIN]	–	–	1 µg/mL (≈ 2.49 µM)	0.032 µg/mL (≈ 0.0797 µM)	2500 ng/mL	0.25 µg/mL (≈ 0.623 µM)	35000 ng·h/mL	37500 ng·h/mL	1 h	2850 ng/mL	–
CN[C@H](CC(C)C)C(=O)N[C@H]1C(=O)N[C@@H](CC(N)=O)C(=O)N[C@H]2C(=O)N[C@H]3C(=O)N[C@H](C(=O)N[C@H](C(=O)O)c4cc(O)cc(O)c4-c4cc3ccc4O)[C@H](O)c3ccc(c(Cl)c3)Oc3cc2cc(c3O[C@@H]2O[C@H](CO)[C@@H](O)[C@H](O)[C@H]2O[C@H]2C[C@](C)(N)[C@H](O)[C@H](C)O2)Oc2ccc(cc2Cl)[C@H]1O [VANCOMYCIN]	–	–	–	0.032 µg/mL (≈ 0.0221 µM)	–	–	–	–	–	–	26.3 mg/L
